These results are taken from patent publication US11767341B2, “Lincosamide antibiotics and uses thereof” (President and Fellows of Harvard College, priority 2017, dated 2023).

Converted amounts (≈) assume the structure as drawn. Like-named read-outs stand apart in the source and are kept apart here.

What all share (test): MIC determination
Holding throughout (format): cell-based

The test system of experiment [1] is S. aureus ATCC 29213. Particulars: Staphylococcus aureus.
In experiment [2] the test system is S. aureus BAA 977 iErmA. Particulars: Staphylococcus aureus, BAA977.
Experiment [3] relates to S. aureus MP-549 msr(a) USA 300. Particulars: Staphylococcus aureus, USA300, S. aureus MP-549 msr(a) USA 300.
For experiment [4], the system named is S. aureus Micromyx USA 300. The following applies: Staphylococcus aureus, USA300.
Experiment [5] deals with S. aureus MMX 3035 cErmA. The following applies: Staphylococcus aureus, MMX3035CERMA.
The subject of experiment [6] is S. pneumoniae ATCC 49619. The following applies: Streptococcus pneumoniae, ATCC49619; S. pneumoniae ATCC 49619; read-out: MIC.
Experiment [7] has as its system S. pneumoniae MMX 3028 cErmB. The following applies: Streptococcus pneumoniae, MMX3028CERMB.
The test system of experiment [8] is S. pneumoniae MMX 3031 cMefA. Particulars: Streptococcus pneumoniae, MMX3031CMEFA.
The test system of experiment [9] is S. pyogenes ATCC 19615. Particulars: Streptococcus pyogenes, ATCC19615.
In experiment [10] the test system is S. pyogenes MMX 946 Macrolide-Resistant. Particulars: Streptococcus pyogenes.
Experiment [11] has as its system E. faecalis ATCC 29212. Particulars: Enterococcus faecalis.
The test system of experiment [12] is E. faecalis MMX 847 Macrolide-Resistant. Particulars: Enterococcus faecalis.
The subject of experiment [13] is C. difficile BAA 1805. The following applies: Clostridioides difficile, BAA1805.
Experiment [14] has as its system B. fragilis ATCC 25285. The following applies: Bacteroides fragilis, ATCC25285.
The subject of experiment [15] is K. pneumoniae ATCC 10031. The following applies: Klebsiella pneumoniae, ATCC10031; K. pneumoniae ATCC 10031; read-out: MIC.
In experiment [16] the test system is E. coli ATCC 25922. Particulars: Escherichia coli.
Experiment [17] relates to E. coli MMX TolC parent strain. The following applies: Escherichia coli.
In experiment [18] the test system is E. coli MMX 0121 ΔTolC. The following applies: Escherichia coli.
The test system of experiment [19] is E. coli MP-9 ΔTolC. The following applies: Escherichia coli.
In experiment [20] the test system is E. coli MP-74 LptD mutant. The following applies: Escherichia coli.
Experiment [21] deals with P. aeruginosa ATCC 27853. Particulars: Pseudomonas aeruginosa, ATCC27853.
Experiment [22] concerns P. aeruginosa MMX Mex parent strain. Particulars: Pseudomonas aeruginosa.
For experiment [23], the system named is P. aeruginosa MMX 3476 Δmex. The following applies: Pseudomonas aeruginosa.
For experiment [24], the system named is H. influenzae ATCC 49247. The following applies: Haemophilus influenzae, ATCC49247.
[25] abbreviates: ATCC29213, S. aureus ATCC 29213, read-out: MIC.
Where [26] appears, read: S. aureus Micromyx USA 300, read-out: MIC.
[27] abbreviates: S. aureus MMX 3035 cErmA, read-out: MIC.
The mark [28] stands for this setting: S. pyogenes ATCC 19615, read-out: MIC.
[29] abbreviates: S. pyogenes MMX 946 Macrolide-Resistant (MacRes), read-out: MIC.
Where [30] appears, read: E. faecalis MMX 847 Macrolide-Resistant (MacRes), read-out: MIC.
The mark [31] stands for this setting: C. difficile BAA 1805, read-out: MIC.
Where [32] appears, read: B. fragilis ATCC 25285, read-out: MIC.
Where [33] appears, read: ATCC25922, E. coli ATCC 25922, read-out: MIC.
Where [34] appears, read: E. coli MMX TolC parent strain, read-out: MIC.
Setting [35] is: P. aeruginosa ATCC 27853, read-out: MIC.
The mark [36] stands for this setting: P. aeruginosa MMX Mex parent strain, read-out: MIC.
The mark [37] stands for this setting: H. influenzae ATCC 49247, read-out: MIC.
The mark [38] stands for this setting: S. pneumoniae MMX 3028 cErmB, read-out: MIC.

In the case of `CSC1O[C@H]([C@H](NC(=O)[C@H]2NC[C@@H]3C[C@H]4C[C@H]4CO[C@H]32)[C@H](C)Cl)C(O)C(O)[C@H]1O` (stereo in doubt) [FSA-507007], the MIC is 0.25 µg/mL (≈ 0.554 µM) in [1] (setting [25]); 0.5 µg/mL (≈ 1.11 µM) in experiment [2]; 0.25 µg/mL (≈ 0.554 µM) in experiment [3]; 0.12 µg/mL (≈ 0.266 µM) in [4] (setting [26]); above 64 µg/mL in [5] (setting [27]); 0.12 µg/mL (≈ 0.266 µM) in [6]. Besides, the MIC in experiment [7] is 64 µg/mL (≈ 142 µM); in experiment [8], 0.12 µg/mL (≈ 0.266 µM); in experiment [9] (setting [28]), at most 0.06 µg/mL; in experiment [10] (setting [29]), 32 µg/mL (≈ 71 µM); in experiment [11] (ATCC29212), 16 µg/mL (≈ 35.5 µM); in experiment [12] (setting [30]), above 64 µg/mL. Further, the MIC in experiment [13] (setting [31]) is 4 µg/mL (≈ 8.87 µM); in experiment [14] (setting [32]) it was 32 µg/mL (≈ 71 µM); in experiment [15], above 64 µg/mL; in experiment [16] (setting [33]) it was above 64 µg/mL; in [17] (setting [34]) it was above 64 µg/mL; in [18], 8 µg/mL (≈ 17.7 µM). Further, the MIC was 16 µg/mL (≈ 35.5 µM) in [19]; 16 µg/mL (≈ 35.5 µM) in experiment [20]; above 64 µg/mL in [21] (setting [35]); above 64 µg/mL in [22] (setting [36]); 64 µg/mL (≈ 142 µM) in [23]; 2 µg/mL (≈ 4.43 µM) in experiment [24] (setting [37]).
Consider `CSC1O[C@H]([C@H](NC(=O)[C@@H]2[C@@H]3OCC=CC[C@H]3CN2C)[C@H](C)Sc2ccc(-c3cncnc3)cc2)C(O)[C@@H](O)[C@H]1O` (stereo partly shown) [FSA-212034], for which the MIC in experiment [1] (setting [25]) was 0.25 µg/mL (≈ 0.415 µM); in [2], 0.25 µg/mL (≈ 0.415 µM); in experiment [3] it was 0.5 µg/mL (≈ 0.829 µM); in experiment [4] (setting [26]), 0.25 µg/mL (≈ 0.415 µM); in experiment [5] (setting [27]), 32 µg/mL (≈ 53.1 µM); in experiment [6] it was at most 0.06 µg/mL. Also, the MIC in experiment [7] (setting [38]) was 4 µg/mL (≈ 6.64 µM); in [8], at most 0.06 µg/mL; in experiment [9] (setting [28]), at most 0.06 µg/mL; in experiment [10] (setting [29]), 2 µg/mL (≈ 3.32 µM); in [11] (ATCC29212), 16 µg/mL (≈ 26.5 µM); in experiment [12], above 64 µg/mL. In addition, the MIC was 0.5 µg/mL (≈ 0.829 µM) in experiment [13]; 1 µg/mL (≈ 1.66 µM) in experiment [14] (setting [32]); 64 µg/mL (≈ 106 µM) in experiment [15]; above 64 µg/mL in [16] (ATCC25922); above 64 µg/mL in [17]; 1 µg/mL (≈ 1.66 µM) in experiment [18]. Moreover, the MIC in experiment [19] was 16 µg/mL (≈ 26.5 µM); in [21] it was above 64 µg/mL; in experiment [22], above 64 µg/mL; in experiment [23], above 64 µg/mL; in experiment [24] (setting [37]), 4 µg/mL (≈ 6.64 µM).
With `CSC1O[C@H]([C@H](NC(=O)[C@H]2NC[C@H]3CC=CCO[C@H]32)[C@H](C)Cl)C(O)[C@@H](O)[C@H]1O` (stereo partly shown) [FSA-507051], the MIC was 16 µg/mL (≈ 36.6 µM) in experiment [1] (ATCC29213); 16 µg/mL (≈ 36.6 µM) in [2]; 16 µg/mL (≈ 36.6 µM) in experiment [4]; above 32 µg/mL in experiment [5]; 1 µg/mL (≈ 2.29 µM) in experiment [6]; above 32 µg/mL in experiment [7]. The MIC was 1 µg/mL (≈ 2.29 µM) in experiment [8]; 0.5 µg/mL (≈ 1.14 µM) in [9]; 32 µg/mL (≈ 73.2 µM) in [10]; above 32 µg/mL in experiment [11] (ATCC29212); above 32 µg/mL in experiment [12]; above 32 µg/mL in experiment [13]. The MIC is 32 µg/mL (≈ 73.2 µM) in experiment [14]; 32 µg/mL (≈ 73.2 µM) in experiment [16] (ATCC25922); above 32 µg/mL in experiment [17]; above 32 µg/mL in experiment [18]; above 32 µg/mL in experiment [21]; above 32 µg/mL in experiment [22]. Besides, the values for the MIC in experiment [23] and in experiment [24] were above 32 µg/mL and 16 µg/mL (≈ 36.6 µM), respectively.
`CSC1O[C@H]([C@H](NC(=O)[C@H]2NC[C@@H]3C[C@@H](c4ccc(F)cc4)CCO[C@H]32)[C@H](C)Cl)C(O)[C@@H](O)[C@H]1O` (stereo partly shown) [FSA-507061]: the MIC was 0.12 µg/mL (≈ 0.225 µM) in experiment [1] (setting [25]); 0.25 µg/mL (≈ 0.469 µM) in experiment [2]; 0.125 µg/mL (≈ 0.234 µM) in [3]; at most 0.06 µg/mL in [4] (setting [26]); 64 µg/mL (≈ 120 µM) in experiment [5] (setting [27]); at most 0.06 µg/mL in experiment [6]. Further, the MIC was 4 µg/mL (≈ 7.5 µM) in [7] (setting [38]); at most 0.06 µg/mL in [8]; at most 0.06 µg/mL in experiment [9] (setting [28]); 4 µg/mL (≈ 7.5 µM) in experiment [10] (setting [29]); at most 0.06 µg/mL in experiment [11] (ATCC29212, read-out: MIC); 32 µg/mL (≈ 60 µM) in experiment [12] (setting [30]). Also, the MIC is 2 µg/mL (≈ 3.75 µM) in [13] (setting [31]); 64 µg/mL (≈ 120 µM) in experiment [14] (setting [32]); 16 µg/mL (≈ 30 µM) in [15]; 64 µg/mL (≈ 120 µM) in experiment [16] (setting [33]); above 64 µg/mL in experiment [17] (setting [34]); 2 µg/mL (≈ 3.75 µM) in experiment [18]. Further, the MIC in experiment [19] was 4 µg/mL (≈ 7.5 µM); in [20] it was 8 µg/mL (≈ 15 µM); in experiment [21] (setting [35]), above 64 µg/mL; in experiment [22] (setting [36]) it was above 64 µg/mL; in experiment [23] it was above 64 µg/mL; in [24] (setting [37]) it was 4 µg/mL (≈ 7.5 µM).
